13 molecules from patent US20240246960A1 (adMare Therapeutics Society, priority 2021, published 2024) can be followed below.

SMILES strings stand for the structures. A value given as a limit tells only on which side of the number the result lay.

The nature of series [1]: Hepatocyte stability assay, human hepatocytes. Particulars: for hepatocyte CLint at 1 uM: both sexes, human, cryopreserved hepatocytes, pH 7.3, 0.7 million cells per mL, 1 uM compound. The class given is in vitro ADME. How it is done: (§1) Cryopreserved mouse hepatocytes were obtained from a pool of 10 or more male CD-1 mice. Cryopreserved human hepatocytes were obtained from a pool of 10 or more donors of mixed gender. Final hepatocyte density was 0.7 million viable cells per mL and test compound concentration was 1 uM with a maximum of 0.01% DMSO. Cryopreserved hepatocytes were thawed, washed, and resuspended in Krebs-Heinslet buffer (pH 7.3). The reaction was initiated by adding the test compound into cell suspension and incubated for 0, […], 1, 1.5, and 2 h, respectively, at 37° C./5% CO2. The reaction was stopped by adding acetonitrile into the incubation mixture. Samples were then mixed, transferred completely to another 96-well plate, and centrifuged. Supernatants were used for HPLC-MS/MS analysis. […] Peak areas corresponding to the test compound were recorded.

Series [2] has as its target T1, DNA-PK (Homo sapiens, UniProt P78527).
T1 construct: purchased Invitrogen PR9107A
Briefly: DNA-PK Assay for Biochemical Enzymatic Inhibition (ADP Glo Kinase assay). As to conditions: Table 1. In short, it runs like this:
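Human DNA-PK (25 ng) preincubated 15 min with compounds (ten three-fold dilutions) in HEPES pH 7.5, MgCl2, KCl, calf thymus DNA buffer, then substrate 434.4 μM and ATP 64.4 μM (final) for 60 min at room temperature. ADP-Glo luminescence; percent inhibition fitted by four-parameter regression for IC50.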

Series [3] is described as follows: Hepatocyte stability assay, mouse hepatocytes. The format is in vitro ADME. Particulars: for hepatocyte CLint at 1 uM: male, CD-1, mouse, cryopreserved hepatocytes, pH 7.3, 0.7 million cells per mL, 1 uM compound. How it is done: as §1

Take `COc1cnc(N[C@H]2CC[C@@H](Oc3nc(N4CCOCC4)cc4ncc(NS(C)(=O)=O)cc34)CC2)nc1` [Compound 203, N-(5-(((1s,4s)-4-((5-methoxypyrimidin-2-yl)amino)cyclohexyl)oxy)-7-morpholino-1,6-naphthyridin-3-yl)methanesulfonamide]: in series [1], the “Hepatocyte Stability (human) % rem. 120 min” value is “G (% remaining = 50-75%)” and the hepatocyte CLint at 1 uM was less than 8.2 µL/min/1e6 cells. The IC50 in series [2] is less than 0.5 nM. In series [3], the “Hepatocyte Stability (mouse) % rem. 120 min” value is reported as “F (% remaining = 25-50%)” and the hepatocyte CLint at 1 uM was less than 8.2 µL/min/1e6 cells.
Regarding `Cn1cnc2cnc(N[C@H]3CC[C@@H](Oc4nc(N5CCOCC5)cc5ncccc45)CC3)nc21` [Compound 88, 9-Methyl-N-((1s,4s)-4-((7-morpholino-1,6-naphthyridin-5-yl)oxy)cyclohexyl)-9H-purin-2-amine], in series [1], the “Hepatocyte Stability (human) % rem. 120 min” value was “E (% remaining = 0-25%)” and the hepatocyte CLint at 1 uM was more than 8.2 µL/min/1e6 cells. Besides, in series [2], the IC50 is 0.5 to 1 nM. For the same molecule, in series [3], the “Hepatocyte Stability (mouse) % rem. 120 min” value is reported as “E (% remaining = 0-25%)” and the hepatocyte CLint at 1 uM was more than 8.2 µL/min/1e6 cells.
Consider `CN(C)C(=O)c1cnc(N[C@H]2CC[C@@H](Oc3nc(N4CCOCC4)cc4ncccc34)CC2)nc1` [Compound 53, N,N-dimethyl-2-(((1s,4s)-4-((7-morpholino-1,6-naphthyridin-5-yl)oxy)cyclohexyl)amino)pyrimidine-5-carboxamide], for which, in series [1], the “Hepatocyte Stability (human) % rem. 120 min” value is “G (% remaining = 50-75%)” and the hepatocyte CLint at 1 uM was less than 8.2 µL/min/1e6 cells. Also, in series [2], the IC50 is 0.5 to 1 nM. In series [3], the “Hepatocyte Stability (mouse) % rem. 120 min” value is recorded as “H (% remaining = 75-100%)” and the hepatocyte CLint at 1 uM was less than 8.2 µL/min/1e6 cells.
For the molecule `Oc1cnc(N[C@H]2CC[C@@H](Oc3nc(N4CCOCC4)cc4ncccc34)CC2)nc1` [Compound 45, 2-(((1s,4s)-4-((7-morpholino-1,6-naphthyridin-5-yl)oxy)cyclohexyl)amino)pyrimidin-5-ol], in series [1], the “Hepatocyte Stability (human) % rem. 120 min” value is “F (% remaining = 25-50%)” and the intrinsic clearance (hepatocyte CLint) at 1 uM is less than 8.2 µL/min/1e6 cells. Moreover, the IC50 in series [2] lay within 0.5 to 1 nM. In addition, in series [3], the “Hepatocyte Stability (mouse) % rem. 120 min” value is reported as “F (% remaining = 25-50%)” and the hepatocyte CLint at 1 uM is more than 8.2 µL/min/1e6 cells.
Take `Cc1ccnc(N[C@H]2CC[C@@H](Oc3nc(N4CCOCC4)cc4ncccc34)CC2)n1` [Compound 48, 4-methyl-N-((1s,4s)-4-((7-morpholino-1,6-naphthyridin-5-yl)oxy)cyclohexyl)pyrimidin-2-amine]: in series [1], the “Hepatocyte Stability (human) % rem. 120 min” value is “F (% remaining = 25-50%)” and the hepatocyte CLint at 1 uM is less than 8.2 µL/min/1e6 cells. Besides, the IC50 in series [2] is less than 0.5 nM. In series [3], the “Hepatocyte Stability (mouse) % rem. 120 min” value is on record as “F (% remaining = 25-50%)” and the hepatocyte CLint at 1 uM is more than 8.2 µL/min/1e6 cells.
As for `COc1ccnc(N[C@H]2CC[C@@H](Oc3nc(N4CCOCC4)cc4ncccc34)CC2)n1` [Compound 49, 4-methoxy-N-((1s,4s)-4-((7-morpholino-1,6-naphthyridin-5-yl)oxy)cyclohexyl)pyrimidin-2-amine], in series [1], the “Hepatocyte Stability (human) % rem. 120 min” value was “F (% remaining = 25-50%)” and the hepatocyte CLint at 1 uM is more than 8.2 µL/min/1e6 cells. In addition, the IC50 in series [2] is 0.5 to 1 nM. For the same molecule, in series [3], the “Hepatocyte Stability (mouse) % rem. 120 min” value is given as “F (% remaining = 25-50%)” and the hepatocyte CLint at 1 uM was more than 8.2 µL/min/1e6 cells.
As for `COc1ccc(N[C@H]2CC[C@@H](Oc3nc(N4CCOCC4)cc4ncccc34)CC2)nn1` [Compound 38, 6-methoxy-N-((1s,4s)-4-((7-morpholino-1,6-naphthyridin-5-yl)oxy)cyclohexyl)pyridazin-3-amine], in series [1], the “Hepatocyte Stability (human) % rem. 120 min” value is reported as “E (% remaining = 0-25%)” and the hepatocyte CLint at 1 uM was more than 8.2 µL/min/1e6 cells. Also, the IC50 in series [2] lay in the range of 0.5 to 1 nM. Moreover, in series [3], the “Hepatocyte Stability (mouse) % rem. 120 min” value is given as “F (% remaining = 25-50%)” and the hepatocyte CLint at 1 uM was more than 8.2 µL/min/1e6 cells.
For the molecule `FC(F)c1ccc2c(O[C@H]3CC[C@@H](Nc4ncccn4)CC3)nc(N3CCOCC3)cc2n1` [Compound 21, N-((1s,4s)-4-((2-(Difluoromethyl)-7-morpholino-1,6-naphthyridin-5-yl)oxy)cyclohexyl)pyrimidin-2-amine], in series [1], the “Hepatocyte Stability (human) % rem. 120 min” value is recorded as “G (% remaining = 50-75%)” and the hepatocyte CLint at 1 uM is less than 8.2 µL/min/1e6 cells. For the same molecule, the IC50 in series [2] lay within 0.5 to 1 nM. Also, in series [3], the “Hepatocyte Stability (mouse) % rem. 120 min” value is on record as “G (% remaining = 50-75%)” and the intrinsic clearance (hepatocyte CLint) at 1 uM was less than 8.2 µL/min/1e6 cells.
As to `c1cnc2cc(N3CCOCC3)nc(O[C@H]3CC[C@@H](Nc4ncnc5ccsc45)CC3)c2c1` [Compound 83, N-((1s,4s)-4-((7-morpholino-1,6-naphthyridin-5-yl)oxy)cyclohexyl)thieno[3,2-d]pyrimidin-4-amine], in series [1], the “Hepatocyte Stability (human) % rem. 120 min” value is listed as “E (% remaining = 0-25%)” and the hepatocyte CLint at 1 uM is more than 8.2 µL/min/1e6 cells. In series [2], the IC50 was less than 0.5 nM. Besides, in series [3], the “Hepatocyte Stability (mouse) % rem. 120 min” value was “F (% remaining = 25-50%)” and the hepatocyte CLint at 1 uM was more than 8.2 µL/min/1e6 cells.
On to `NS(=O)(=O)c1cnc(N[C@H]2CC[C@@H](Oc3nc(N4CCOCC4)cc4ncccc34)CC2)nc1` [Compound 46, 2-(((1s,4s)-4-((7-morpholino-1,6-naphthyridin-5-yl)oxy)cyclohexyl)amino)pyrimidine-5-sulfonamide], for which, in series [1], the “Hepatocyte Stability (human) % rem. 120 min” value is listed as “G (% remaining = 50-75%)” and the hepatocyte CLint at 1 uM was less than 8.2 µL/min/1e6 cells. Besides, in series [2], the half-maximal inhibitory concentration (IC50) was in the range of 0.5 to 1 nM. In addition, in series [3], the “Hepatocyte Stability (mouse) % rem. 120 min” value is “G (% remaining = 50-75%)” and the hepatocyte CLint at 1 uM is less than 8.2 µL/min/1e6 cells.
Consider `c1cnc2cc(N3CCOCC3)nc(O[C@H]3CC[C@@H](Nc4ccn5nccc5n4)CC3)c2c1` [Compound 89, N-((1s,4s)-4-((7-Morpholino-1,6-naphthyridin-5-yl)oxy)cyclohexyl)pyrazolo[1,5-a]pyrimidin-5-amine], for which, in series [1], the “Hepatocyte Stability (human) % rem. 120 min” value was “G (% remaining = 50-75%)” and the hepatocyte CLint at 1 uM is less than 8.2 µL/min/1e6 cells. Moreover, in series [2], the IC50 was 0.5 to 1 nM. Also, in series [3], the “Hepatocyte Stability (mouse) % rem. 120 min” value was “F (% remaining = 25-50%)” and the hepatocyte CLint at 1 uM is more than 8.2 µL/min/1e6 cells.
On the same counts, the results for `c1cnc2cc(N3CCOCC3)nc(O[C@H]3CC[C@@H](Nc4ncc5[nH]ccc5n4)CC3)c2c1` [Compound 85, N-((1s,4s)-4-((7-Morpholino-1,6-naphthyridin-5-yl)oxy)cyclohexyl)-5H-pyrrolo[3,2-d]pyrimidin-2-amine] are “E (% remaining = 0-25%)”, more than 8.2 µL/min/1e6 cells, less than 0.5 nM, “E (% remaining = 0-25%)” and more than 8.2 µL/min/1e6 cells.
On the same counts, the results for `CS(=O)(=O)Nc1cnc2cc(N3CCOCC3)nc(O[C@H]3CC[C@@H](NC(=O)c4ncco4)CC3)c2c1` [Compound 205, N-((1s,4s)-4-((3-(methylsulfonamido)-7-morpholino-1,6-naphthyridin-5-yl)oxy)cyclohexyl)oxazole-2-carboxamide] are “H (% remaining = 75-100%)”, less than 8.2 µL/min/1e6 cells, 0.5 to 1 nM, “H (% remaining = 75-100%)” and less than 8.2 µL/min/1e6 cells.
